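Assay format: 96-well plates, 48-hour exposure. GI50 = concentration required for 50% inhibition of growth. TGI: total growth inhibition.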
Legend:
Test in all cases: NCI tumour cell line growth inhibition, 48 h
SNB-78 CNS = test system: SNB-78 CNS
DMS 114 small cell lung = test system: DMS 114 small cell lung
DLD-1 colon = test system: DLD-1 colon
XF 498 CNS = test system: XF 498 CNS
M19-MEL melanoma = test system: M19-MEL melanoma
SN12K1 renal = test system: SN12K1 renal
P388/ADR leukemia = test system: P388/ADR leukemia
P388 leukemia = test system: P388 leukemia

SMILES	TGI (SNB-78 CNS)	TGI (DMS 114 small cell lung)	TGI (DLD-1 colon)	TGI (XF 498 CNS)	TGI (M19-MEL melanoma)	TGI (SN12K1 renal)	TGI (P388/ADR leukemia)	TGI (P388 leukemia)	GI50 (SNB-78 CNS)	GI50 (DLD-1 colon)
COc1ccc(/C=N/N=C(N)N)c(C(=O)O)c1OC	> 100 µM	> 100 µM								
CC12CCC3=C(CSC4=C3CSc3ccccc34)C1=CCCC2=O (stereo unspecified)		> 100 µM	> 100 µM	87.3 µM	> 100 µM					
O=C1CCCn2c3ccccc3c3ccnc1c32	> 100 µM	> 100 µM	> 100 µM	74.5 µM	> 100 µM	> 100 µM	> 100 µM	> 93.9 µM		
CSCC[C@@H](NC(=O)[C@H](CC(C)C)NC(=O)C(Cc1cnc[nH]1)NC(=O)CNC(=O)[C@@H](NC(=O)[C@H](C)NC(=O)[C@H](Cc1cn(C=O)c2ccccc12)NC(=O)[C@H](CCC(N)=O)NC(=O)[C@@H](N)CC(N)=O)C(C)C)C(N)=O (stereo partly specified)	> 100 µM	> 100 µM	> 100 µM	> 100 µM	> 100 µM	> 100 µM	> 100 µM	> 100 µM		
N.N.NCCCCN.O=C([O-])CCl.O=C([O-])CCl.O=C([O-])CCl.O=C([O-])CCl.[Pt+4].[Pt+4]	> 50 µM		> 50 µM						> 50 µM	> 50 µM
c1ccc(C[P+]2(c3ccccc3)CCCCC2)cc1	> 100 µM	> 100 µM	> 100 µM	98.2 µM	> 100 µM					

— PubChem BioAssay (NCI)
